According to patent publication US20200397795A1, “PROPHYLACTIC TREATMENT OF VENOUS THROMBOEMBOLISM” (JANSSEN PHARMACEUTICALS, INC., priority 2019, published 2020):

Tests used:
[1] = test system: symptomatic VTE and VTE-related death in high-risk, medically ill subjects; experiment: MARINER (Study 2): efficacy of rivaroxaban vs placebo for 45 days post-hospital discharge; assay type: in vivo, human; parameters: Primary efficacy outcome, absolute difference vs placebo / Primary efficacy outcome, relative risk reduction vs placebo: concentration or dose not given beside the values; details: for Primary efficacy outcome (symptomatic VTE and VTE-related death), n/N (%): CEC adjudicated
Source text: The primary objective of Study 2 (MARINER) was to assess the efficacy and safety of rivaroxaban, compared with placebo in the prevention of symptomatic venous thromboembolism (VTE; lower extremity deep vein thrombosis [DVT] and non-fatal pulmonary embolism [PE]) and VTE-related death (death due to PE or death in which PE could not be ruled out as the cause) post-hospital discharge in high-risk, medically ill subjects.
This was a multicenter, prospective, randomized, double-blind, placebo-controlled, event-driven study conducted in multiple geographic regions (North America, South America, Eastern Europe, Western Europe, and Other locations) that evaluated rivaroxaban, compared with placebo, in the prevention of symptomatic VTE events and VTE-related deaths for a period of 45 days post-hospital discharge in high-risk, medically ill subjects. The study consisted of a screening phase, a 45-day double-blind treatment phase, and a 30-day safety follow-up period (which was also the end of study [EOS]). The total duration for a subject who completed the study (including the safety follow-up period) after randomization was 75 (±5) days.
The index hospitalization was at least 3 and no more than 10 consecutive days in duration. […] Subjects received thromboprophylaxis during the index hospitalization with low molecular weight heparin (LMWH) or unfractionated heparin (UFH).
Randomization occurred on the same day or the day after the subject left the hospital, and occurred at the hospital, clinic, or other discharge destination. Eligible subjects were to be randomly assigned (1:1) by strata (by creatinine clearance [CrCl] level [≥30-<50 mL/min versus ≥50 mL/min] and by country) to receive either rivaroxaban or placebo. Subjects with a baseline CrCl of ≥50 mL/min were to receive rivaroxaban 10 mg once daily (QD) or placebo QD. A dose adjustment to rivaroxaban 7.5 mg QD was to be implemented for subjects with a baseline CrCl of ≥30 to <50 mL/min. Study drug started at randomization (Day 1) and continued until Day 45 (inclusive). The subject was assessed 30 days later for safety follow-up.
Criteria for Evaluation: This was a clinical outcomes study. The primary efficacy outcome was the composite of all symptomatic VTE events and VTE-related death from randomization up to Day 45. Secondary efficacy outcomes were: VTE-related death; symptomatic VTE; the composite of symptomatic VTE and ACM; the composite of symptomatic VTE, MI, non-hemorrhagic stroke and CV death; and ACM.
The primary and secondary efficacy outcomes were analyzed based on the time from randomization to the first occurrence in the ITT analysis set and Up-to-Day 45 analysis phase. […] A Cox proportional hazards model, stratified by subjects with CrCl ≥30 to <50 mL/min versus subjects with CrCl ≥50 mL/min, with the treatment (as randomized) as the only covariate was used for each analysis. A 2-sided p-value was reported, and if it was less than the 2-sided alpha of 0.05, then superiority of the study drug was to be declared when the observed survival functions favored rivaroxaban. The point estimate and corresponding 95% confidence interval (CI) for the hazard ratio (HR; rivaroxaban to placebo) were provided based on the Cox proportional hazards model. To control the family-wise type I error rate at alpha of 0.05 (2-sided) in testing for efficacy outcomes, if superiority of rivaroxaban over placebo for the primary efficacy outcome was established, superiority of rivaroxaban over placebo on secondary outcomes was tested sequentially using a closed testing procedure in a hierarchical order, each at alpha of 0.05 (2-sided).

[2] = test system: bleeding events in high-risk, medically ill subjects; details: human, in vivo
Source text: The safety objectives were to compare rivaroxaban with placebo in the following bleeding outcomes in high-risk, medically ill subjects: • Major bleeding using validated International Society on Thrombosis and Haemostasis (ISTH) bleeding criteria. • Non-major clinically relevant (NMCR) bleeding. • Other bleeding.
Safety assessment was based on bleeding events classified by validated ISTH criteria as major bleeding (principal safety outcome), NMCR bleeding, or Other bleeding. […] The safety outcome of NMCR bleeding was defined as overt bleeding not meeting ISTH criteria for major bleeding, but associated with medical intervention, unscheduled contact (visit or telephone call) with a physician, (temporary) cessation of study treatment, or associated with discomfort for the subject such as pain or impairment of activities of daily life. […] Overall safety was also assessed.
The principal safety outcome was major bleeding based on validated ISTH criteria. Treatments were compared using the same statistical model (i.e., Cox proportional hazards model) as that for the primary efficacy outcome. The same analyses were used for NMCR bleeding. Safety analyses were based on the safety analysis set and on-treatment analysis phase. Bleeding events were analyzed based on time from randomization to the first occurrence.

[3] = Up-to-Day 45, ITT, listed as rivaroxaban
[4] = as reported by the investigator

For `O=C(NC[C@H]1CN(c2ccc(N3CCOCC3=O)cc2)C(=O)O1)c1ccc(Cl)s1` [Rivaroxaban, 5-chloro-N-({(5S)-2-oxo-3-[4-(3-oxo-4-morpholinyl)phenyl]-1,3,oxazolidin-5-yl}methyl)-2-thiophenecarboxamide], the “Primary efficacy outcome, HR vs placebo” value ([1]; 7.5 mg dose stratum) was 1.00, the “Primary efficacy outcome, RRR vs placebo” value ([1]; 7.5 mg dose stratum) was 0% and the “Primary efficacy outcome, incidence” value ([1]; 7.5 mg dose stratum, Up-to-Day 45, ITT) was 1.64%. For the same compound, the “Primary efficacy outcome, HR vs placebo” value ([1]; 10 mg dose stratum) was 0.67, the “Primary efficacy outcome, RRR vs placebo” value ([1]; 10 mg dose stratum) was 33% and the “Primary efficacy outcome, incidence” value ([1]; 10 mg dose stratum, Up-to-Day 45, ITT) was 0.65%. The “Rehospitalization for symptomatic VTE within 30 days after randomization, HR vs placebo” value ([1]; ITT) was 0.50, the “Rehospitalization for symptomatic VTE within 30 days after randomization, incidence” value ([1]; ITT) was 0.15% and the “ACM, event rate” value ([1]; Up-to-Day 45, ITT) was 1.19 100 pt-45 dy. The “ACM, hazard ratio (95% CI) vs placebo” value ([1]; Up-to-Day 45, ITT) was 0.80 (0.58, 1.09), the “Composite of symptomatic VTE and ACM, RRR vs placebo” value ([1]; Up-to-Day 45, ITT) was 27% and the “Composite of symptomatic VTE and ACM, absolute difference vs placebo” value ([1]; Up-to-Day 45, ITT) was 0.48%. The “Composite of symptomatic VTE and ACM, event rate” value ([1]; Up-to-Day 45, ITT) was 1.31 100 pt-45 dy, the “Composite of symptomatic VTE and ACM, hazard ratio (95% CI) vs placebo” value ([1]; Up-to-Day 45, ITT) was 0.73 (0.54, 0.97) and the “Composite of symptomatic VTE and ACM, n/N (%)” value ([1]; Up-to-Day 45, ITT) was 78/6007 (1.30) %. The “Composite of symptomatic VTE, MI, non-hemorrhagic stroke and CV death, event rate” value ([1]; Up-to-Day 45, ITT) was 1.58 100 pt-45 dy, the “Composite of symptomatic VTE, MI, non-hemorrhagic stroke and CV death, hazard ratio (95% CI) vs placebo” value ([1]; Up-to-Day 45, ITT) was 0.78 (0.60, 1.02) and the “Composite of symptomatic VTE, MI, non-hemorrhagic stroke and CV death, n/N (%)” value ([1]; Up-to-Day 45, ITT) was 94/6007 (1.56) %. For the same compound, the “Death (PE cannot be ruled out), event rate” value ([1]; Up-to-Day 45, ITT) was 0.67 100 pt-45 dy, the “Death (PE cannot be ruled out), hazard ratio (95% CI) vs placebo” value ([1]; Up-to-Day 45, ITT) was 0.98 (0.63, 1.51) and the “Death (PE cannot be ruled out), n/N (%)” value ([1]; Up-to-Day 45, ITT) was 40/6007 (0.67) %. The “Death (PE), event rate” value ([1]; Up-to-Day 45, ITT) was 0.05 100 pt-45 dy, the “Death (PE), hazard ratio (95% CI) vs placebo” value ([1]; Up-to-Day 45, ITT) was 0.60 (0.14, 2.51) and the “Death (PE), n/N (%)” value ([1]; Up-to-Day 45, ITT) was 3/6007 (0.05) %. The “MI, HR vs placebo” value ([1]; Up-to-Day 45, ITT) was 1.36, the “MI, incidence” value ([1]; Up-to-Day 45, ITT) was 0.25% and the “Non-hemorrhagic stroke, HR vs placebo” value ([1]; Up-to-Day 45, ITT) was 0.63. For the same compound, the “Non-hemorrhagic stroke, incidence” value ([1]; Up-to-Day 45, ITT) was 0.32%, the “Primary efficacy outcome, absolute difference vs placebo” value ([1]; Up-to-Day 45, ITT) was 0.27% and the “Primary efficacy outcome, event rate” value ([1]; Up-to-Day 45, ITT) was 0.84 100 pt-45 dy. For the same compound, the “Primary efficacy outcome, hazard ratio (95% CI) vs placebo” value ([1]; Up-to-Day 45, ITT) was 0.76 (0.52, 1.09), the “Primary efficacy outcome, relative risk reduction vs placebo” value ([1]; Up-to-Day 45, ITT) was 24% and the “Symptomatic VTE (lower extremity DVT and non-fatal PE), n/N (%)” value ([1]; Up-to-Day 45, ITT) was 11/6007 (0.18) %. The “Symptomatic VTE, RRR vs placebo” value ([1]; Up-to-Day 45, ITT) was 56%, the “Symptomatic VTE, absolute difference vs placebo” value ([1]; Up-to-Day 45, ITT) was 0.24% and the “Symptomatic VTE, event rate” value ([1]; Up-to-Day 45, ITT) was 0.19 100 pt-45 dy. The “Symptomatic VTE, hazard ratio (95% CI) vs placebo” value ([1]; Up-to-Day 45, ITT) was 0.44 (0.22, 0.89), the “Symptomatic lower extremity DVT, RRR vs placebo” value ([1]; Up-to-Day 45, ITT) was 69% and the “Symptomatic lower extremity DVT, absolute difference vs placebo” value ([1]; Up-to-Day 45, ITT) was 0.15%. The “Symptomatic lower extremity DVT, event rate” value ([1]; Up-to-Day 45, ITT) was 0.07 100 pt-45 dy, the “Symptomatic lower extremity DVT, hazard ratio (95% CI) vs placebo” value ([1]; Up-to-Day 45, ITT) was 0.31 (0.10, 0.94) and the “Symptomatic lower extremity DVT, n/N (%)” value ([1]; Up-to-Day 45, ITT) was 4/6007 (0.07) %. For the same compound, the “Symptomatic non-fatal PE, event rate” value ([1]; Up-to-Day 45, ITT) was 0.12 100 pt-45 dy, the “Symptomatic non-fatal PE, hazard ratio (95% CI) vs placebo” value ([1]; Up-to-Day 45, ITT) was 0.47 (0.19, 1.14) and the “Symptomatic non-fatal PE, n/N (%)” value ([1]; Up-to-Day 45, ITT) was 7/6007 (0.12) %. For the same compound, the “Symptomatic upper extremity DVT, number (and incidence)” value ([1]; Up-to-Day 45, ITT) was “no subject”, the “VTE-related death, event rate” value ([1]; Up-to-Day 45, ITT) was 0.72 100 pt-45 dy and the “VTE-related death, hazard ratio (95% CI) vs placebo” value ([1]; Up-to-Day 45, ITT) was 0.93 (0.62, 1.42). For the same compound, the “VTE-related death, n/N (%)” value ([1]; Up-to-Day 45, ITT) was 43/6007 (0.72) %, the “Primary efficacy outcome (symptomatic VTE and VTE-related death), n/N (%)” value ([1]; Up-to-Day 45, ITT) was 50/6007 (0.83) % and the “Primary efficacy outcome (symptomatic VTE and VTE-related death), n/N (%)” value [1, 3] was 0.83%. For the same compound, the “ACM, hazard ratio (95% CI) vs placebo” value [1, 3] was 0.80, the “ACM, n/N (%)” value [1, 3] was 1.18% and the “Composite of symptomatic VTE and ACM, hazard ratio (95% CI) vs placebo” value [1, 3] was 0.73. For the same compound, the “Composite of symptomatic VTE and ACM, n/N (%)” value [1, 3] was 1.30%, the “Composite of symptomatic VTE, MI, non-hemorrhagic stroke and CV death, hazard ratio (95% CI) vs placebo” value [1, 3] was 0.78 and the “Composite of symptomatic VTE, MI, non-hemorrhagic stroke and CV death, n/N (%)” value [1, 3] was 1.56%. For the same compound, the “Primary efficacy outcome, hazard ratio (95% CI) vs placebo” value [1, 3] was 0.76, the “Symptomatic VTE (lower extremity DVT and non-fatal PE), n/N (%)” value [1, 3] was 0.18% and the “Symptomatic VTE, hazard ratio (95% CI) vs placebo” value [1, 3] was 0.44. The “Symptomatic lower extremity DVT, hazard ratio (95% CI) vs placebo” value [1, 3] was 0.31, the “Symptomatic lower extremity DVT, n/N (%)” value [1, 3] was 0.07% and the “Symptomatic non-fatal PE, hazard ratio (95% CI) vs placebo” value [1, 3] was 0.47. For the same compound, the “Symptomatic non-fatal PE, n/N (%)” value [1, 3] was 0.12%, the “VTE-related death, hazard ratio (95% CI) vs placebo” value [1, 3] was 0.93 and the “VTE-related death, n/N (%)” value [1, 3] was 0.72%. For the same compound, the “Primary efficacy outcome, HR vs placebo” value [1, 4] was 0.40, the “Primary efficacy outcome, RRR vs placebo” value [1, 4] was 60% and the “Primary efficacy outcome, absolute difference vs placebo” value [1, 4] was 0.37%. The “Primary efficacy outcome, incidence” value ([1]; as reported by the investigator (post-hoc sensitivity analysis)) was 0.25%, the “AEs with onset >2 days from stop of study drug, n (%)” value [2] was 419 (7.0) % and the “Any AEs, n (%)” value ([2]; 45 days) was 1438 (24.0) %. The “Discontinued study drug permanently because of NMCR bleeding” value ([2]; 45 days) was 0.7%, the “Discontinued study drug permanently due to bleeding” value ([2]; 45 days) was 1.1% and the “Major and NMCR bleeding, event rate” value ([2]; 45 days) was 1.71 100 pt-45 dy. The “Major bleeding at a critical site, incidence” value ([2]; 45 days) was 0.05%, the “Major bleeding, event rate” value ([2]; 45 days) was 0.28 100 pt-45 dy and the “NMCR bleeding, event rate” value ([2]; 45 days) was 1.43 100 pt-45 dy. For the same compound, the “Other bleeding, event rate” value ([2]; 45 days) was 0.91 100 pt-45 dy, the “Post-baseline AEs, n (%)” value ([2]; 45 days) was 1430 (23.9) % and the “Post-baseline SAEs, n (%)” value ([2]; 45 days) was 465 (7.8) %. For the same compound, the “SAEs with onset >2 days from stop of study drug, n (%)” value ([2]; 45 days) was 169 (2.8) %, the “SAEs, n (%)” value ([2]; 45 days) was 460 (7.8) % and the “TEAE COPD” value ([2]; 45 days) was 1.3%. For the same compound, the TEAE diarrhoea ([2]; 45 days) was 1.1%, the TEAE headache ([2]; 45 days) was 1.6% and the “TEAEs, n (%)” value ([2]; 45 days) was 1198 (20.0) %. For the same compound, the “TESAEs, n (%)” value ([2]; 45 days) was 337 (5.6) %.
